Data as given in patent US11052092B2, “N-{[2-(piperidin-1-yl)phenyl](phenyl)methyl}-2-(3-oxo-3,4-dihydro-2H-1,4-benzoxazin-7-yl)acetamide derivatives and related compounds as ROR-gamma modulators for treating autoimmune diseases” (Genfit, priority 2017, dated 2021).

Tests used:
[1] = biological target: T1, human RORγt (Homo sapiens, UniProt P51449); assay: RORE Luciferase/RORγt transactivation assay; type: cell-based; conditions: COS-7 cells transfected with human IL-17 promoter luciferase reporter and RORγt plasmid; 20 h with compound; read-out: IC50, RORγt activity inhibition
T1 construct: the full-length cDNA of human RORγt; expressed in transfected cells; host or cells: COS-7 (monkey kidney)
T1 sequence (P51449 1-497 isoform P51449-2): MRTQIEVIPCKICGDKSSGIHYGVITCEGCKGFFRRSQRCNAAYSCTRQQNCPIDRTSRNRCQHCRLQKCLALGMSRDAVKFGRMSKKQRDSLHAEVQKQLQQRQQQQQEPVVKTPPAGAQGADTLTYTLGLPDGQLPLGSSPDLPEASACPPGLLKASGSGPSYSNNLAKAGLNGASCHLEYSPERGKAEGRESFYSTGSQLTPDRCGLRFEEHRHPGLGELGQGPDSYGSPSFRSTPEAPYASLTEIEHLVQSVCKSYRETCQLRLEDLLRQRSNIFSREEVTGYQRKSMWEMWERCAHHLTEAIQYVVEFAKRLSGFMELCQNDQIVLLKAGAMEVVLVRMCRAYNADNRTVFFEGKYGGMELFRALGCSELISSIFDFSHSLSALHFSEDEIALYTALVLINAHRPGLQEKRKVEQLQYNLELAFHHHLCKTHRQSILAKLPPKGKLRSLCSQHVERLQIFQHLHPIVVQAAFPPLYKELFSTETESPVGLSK
Method in brief: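 Transactivation read-out: luminescence (Steady-Glo, 30 min at room temperature) from COS-7 cells carrying a RORγt expression plasmid plus a 4.3 kb IL-17 promoter luciferase reporter. Compound exposure was in serum-free DMEM with 0.3% DMSO final. Reported values are IC50 (μM) and Emax (%).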

[2] = tested on: Murine EL-4 lymphoma cell line overexpressing human RORγt; assay: IL-17 secretion from EL4 murine lymphoma; type: cell-based; conditions: Mus musculus; human RORγt-transfected EL4 cells, PMA (10 ng/mL) and ionomycin (1 μM), 24 h; read-out: IC50, IL-17 secretion inhibition
Method: Murine EL-4 lymphoma cell line overexpressing human RORγt was used in this functional assay to assess compound ability to inhibit IL-17 cytokine secretion.
EL-4 cells are maintained in a standard culture medium RPMI supplemented with 10% fetal calf serum, 1% sodium pyruvate, 1% essential amino acids and 1% antibiotics at 37° C. in a humidified atmosphere of 5% CO02 and 95% air. Culture medium was changed every 2 days. EL4 cells were transfected with a plasmid encoding hRORγt (sequence identical to published sequence NM 001001523). […] Briefly, 1 μg of DNA/1 million cells was served to transfect EL-4 cells. Cell/DNA suspension was transferred into certified cuvette and the electroporation of RORγt plasmid was carried out using appropriate Nucleofector® program.
Cells were seeded in 96 well plates at a density of 150000 cells/I well then treated with compounds of this invention at indicated concentrations and incubated for 24 hours at 37° C. in a humidified atmosphere of 5% C02 and 95% air. EL-4 cells were pretreated with test compounds (RORγ modulators) and stimulated with PMA (10 ng/mL) and ionomycin (1 μM final concentration) in the presence of test compound concentrations for additional 24 h at 37° C. in a humidified atmosphere of 5% C02 and 95% air. Subsequently, supernatants were collected (after centrifugation at 300 g for 10 minutes) to determine the concentrations of IL-17 by HTRF (CisBio, France) or ELISA (R&D Systems Europe) according to the manufacturer's protocols.

Structure (SMILES)	IC50 [1] [nM]	IC50 [2] [nM]
COc1ccc(C(NC(=O)Cc2ccc3[nH]c(=O)cc(C)c3c2)c2ccccc2)c(N2CCCCC2)c1 (stereo not drawn) [Cpd. 10, N-{[4-methoxy-2-(piperidin-1-yl)phenyl](phenyl)methyl}-2-(4-methyl-2-oxo-1,2-dihydroquinolin-6-yl)acetamide]	1000 to 10000	1000 to 10000
Cc1ccc(C(NC(=O)Cc2ccc3c(c2)CS(=O)(=O)N3)c2ccc(C)o2)c(Br)c1 (stereo not drawn) [Cpd. 28, N-[(2-bromo-4-methylphenyl)(5-methylfuran-2-yl)methyl]-2-(2,2-dioxo-1,3-dihydro-2,1-benzothiazol-5-yl)acetamide]	100 to 1000	1000 to 10000
Cc1ccc(C(NC(=O)Cc2ccc3c(c2)OCC(=O)N3)c2ccc(C)o2)c(Br)c1 (stereo not drawn) [Cpd. 31, N-[(2-bromo-4-methylphenyl)(5-methylfuran-2-yl)methyl]-2-(3-oxo-3,4-dihydro-2H-1,4-benzoxazin-7-yl)acetamide]	10 to 100	100 to 1000
Cc1ccc(C(NC(=O)Cc2ccc3c(c2)OCC(=O)N3)c2ccc(C)o2)c(C)c1 (stereo not drawn) [Cpd. 33, N-[(2,4-dimethylphenyl)(5-methylfuran-2-yl)methyl]-2-(3-oxo-3,4-dihydro-2H-1,4-benzoxazin-7-yl)acetamide]	100 to 1000	100 to 1000
Cc1ccc(C(NC(=O)Cc2ccc3c(c2)OCC(=O)N3)c2ccc(C)o2)c(N2CCCCC2)c1 (stereo not drawn) [Cpd. 35, N-{[4-methyl-2-(piperidin-1-yl)phenyl](5-methylfuran-2-yl)methyl}-2-(3-oxo-3,4-dihydro-2H-1,4-benzoxazin-7-yl)acetamide]	10 to 100	< 100
Cc1ccc(C(NC(=O)Cc2ccc3c(c2)CCC(=O)N3)c2ccc(C)o2)c(Br)c1 (stereo not drawn) [Cpd. 36, N-[(2-bromo-4-methylphenyl)(5-methylfuran-2-yl)methyl]-2-(2-oxo-1,2,3,4-tetrahydroquinolin-6-yl)acetamide]	100 to 1000	100 to 1000
Cc1ccc(C(NC(=O)Cc2ccc3c(c2)C(=NN)C(=O)N3)c2ccc(C)o2)c(N2CCCCC2)c1 (stereo not drawn) [Cpd. 37, 2-(3-hydrazinylidene-2-oxo-2,3-dihydro-1H-indol-5-yl)-N-{[4-methyl-2-(piperidin-1-yl)phenyl](5-methylfuran-2-yl)methyl}acetamide]	10 to 100	100 to 1000
Cc1ccc(C(NC(=O)Cc2ccc3c(c2)CC(=O)N3C)c2ccc(C)o2)c(N2CCCCC2)c1 (stereo not drawn) [Cpd. 38, N-{[4-methyl-2-(piperidin-1-yl)phenyl](5-methylfuran-2-yl)methyl}-2-(1-methyl-2-oxo-2,3-dihydro-1H-indol-5-yl)acetamide]	10 to 100	100 to 1000
Cc1ccc(C(NC(=O)Cc2ccc3c(c2)C(C)(O)C(=O)N3C)c2ccc(C)o2)c(N2CCCCC2)c1 (stereo not drawn) [Cpd. 39, 2-(3-hydroxy-1,3-dimethyl-2-oxo-2,3-dihydro-1H-indol-5-yl)-N-{[4-methyl-2-(piperidin-1-yl)phenyl](5-methylfuran-2-yl)methyl}acetamide]	100 to 1000	100 to 1000
Cc1ccc(C(NC(=O)Cc2ccc3c(c2)CN(S(C)(=O)=O)C3)c2ccc(C)o2)c(N2CCCCC2)c1 (stereo not drawn) [Cpd. 41, 2-(2-methanesulfonyl-2,3-dihydro-1H-isoindol-5-yl)-N-{[4-methyl-2-(piperidin-1-yl)phenyl](5-methylfuran-2-yl)methyl}acetamide]	10 to 100	< 100
Cc1ccc(C(NC(=O)Cc2ccc3c(c2)C(=NO)C(=O)N3)c2ccc(C)o2)c(N2CCCCC2)c1 (stereo not drawn) [Cpd. 42, 2-[3-(hydroxyimino)-2-oxo-2,3-dihydro-1H-indol-5-yl]-N-{[4-methyl-2-(piperidin-1-yl)phenyl](5-methylfuran-2-yl)methyl}acetamide]	100 to 1000	100 to 1000
Cc1ccc(C(NC(=O)Cc2cc(C)c3c(c2)CC(=O)N3)c2ccc(C)o2)c(N2CCCCC2)c1 (stereo not drawn) [Cpd. 54, N-{[4-methyl-2-(piperidin-1-yl)phenyl](5-methylfuran-2-yl)methyl}-2-(7-methyl-2-oxo-2,3-dihydro-1H-indol-5-yl)acetamide]	10 to 100	< 100
Cc1ccc(C(NC(=O)Cc2ccc3[nH]cc(CCO)c3c2)c2ccc(C)o2)c(N2CCCCC2)c1 (stereo not drawn) [Cpd. 57, 2-[3-(2-hydroxyethyl)-1H-indol-5-yl]-N-{[4-methyl-2-(piperidin-1-yl)phenyl](5-methylfuran-2-yl)methyl}acetamide]	10 to 100	< 100
Cc1ccc(C(NC(=O)Cc2ccc3[nH]cc(CO)c3c2)c2ccc(C)o2)c(N2CCCCC2)c1 (stereo not drawn) [Cpd. 58, 2-[3-(hydroxymethyl)-1H-indol-5-yl]-N-{[4-methyl-2-(piperidin-1-yl)phenyl](5-methylfuran-2-yl)methyl}acetamide]	10 to 100	< 100
Cc1ccc(C(NC(=O)C2(c3ccc4c(c3)CC(=O)N4)CC2)c2ccc(C)o2)c(C)c1 (stereo not drawn) [Cpd. 61, N-[(2,4-dimethylphenyl)(5-methylfuran-2-yl)methyl]-1-(2-oxo-2,3-dihydro-1H-indol-5-yl)cyclopropane-1-carboxamide]	< 10	< 100
Cc1ccc(C(NC(=O)C2(c3ccc4[nH]cc(CCO)c4c3)CC2)c2ccc(Cl)o2)c(C)c1 (stereo not drawn) [Cpd. 62, N-[(5-chlorofuran-2-yl)(2,4-dimethylphenyl)methyl]-1-[3-(2-hydroxyethyl)-1H-indol-5-yl]cyclopropane-1-carboxamide]	10 to 100	< 100
Cc1ccc(C(NC(=O)C2(c3ccc4c(c3)CS(=O)(=O)C4)CC2)c2ccc(Cl)o2)c(C)c1 (stereo not drawn) [Cpd. 72, N-[(5-chlorofuran-2-yl)(2,4-dimethylphenyl)methyl]-1-(2,2-dioxo-1,3-dihydro-2-benzothiophen-5-yl)cyclopropane-1-carboxamide]	10 to 100	100 to 1000
Cc1ccc(C(NC(=O)C2(c3ccc4c(c3)CN(S(C)(=O)=O)C4)CC2)c2ccc(C)o2)c(N2CCCC2)c1 (stereo not drawn) [Cpd. 73, 1-(2-methanesulfonyl-2,3-dihydro-1H-isoindol-5-yl)-N-{[4-methyl-2-(pyrrolidin-1-yl)phenyl](5-methylfuran-2-yl)methyl}cyclopropane-1-carboxamide]	10 to 100	< 100
Cc1ccc(C(NC(=O)C2(c3ccc4c(c3)CN(S(C)(=O)=O)C4)CC2)c2ccc(C)o2)c(N(C)C)c1 (stereo not drawn) [Cpd. 76, N-{[2-(dimethylamino)-4-methylphenyl](5-methylfuran-2-yl)methyl}-1-(2-methanesulfonyl-2,3-dihydro-1H-isoindol-5-yl)cyclopropane-1-carboxamide]	10 to 100	100 to 1000
Cc1ccc(C(NC(=O)Cc2ccc3c(c2)CS(=O)(=O)C3)c2ccc(C)o2)c(N2CCCCC2)c1 (stereo not drawn) [Cpd. 78, 2-(2,2-dioxo-1,3-dihydro-2-benzothiophen-5-yl)-N-{[4-methyl-2-(piperidin-1-yl)phenyl](5-methylfuran-2-yl)methyl}acetamide]	10 to 100	100 to 1000
Cc1ccc(C(NC(=O)Cc2ccc3c(c2)CN(S(C)(=O)=O)C3)c2ccc(Cl)o2)c(N2CCCCC2)c1 (stereo not drawn) [Cpd. 79, N-[(5-chlorofuran-2-yl)[4-methyl-2-(piperidin-1-yl)phenyl]methyl]-2-(2-methanesulfonyl-2,3-dihydro-1H-isoindol-5-yl)acetamide]	10 to 100	100 to 1000
Cc1ccc(C(NC(=O)C2(c3ccc4c(c3)CN(S(C)(=O)=O)C4)CC2)c2ccc(Cl)o2)c(N2CCCC2)c1 (stereo not drawn) [Cpd. 80, N-[(5-chlorofuran-2-yl)[4-methyl-2-(pyrrolidin-1-yl)phenyl]methyl]-1-(2-methanesulfonyl-2,3-dihydro-1H-isoindol-5-yl)cyclopropane-1-carboxamide]	10 to 100	100 to 1000
Cc1ccc(C(NC(=O)Cc2ccc3c(c2)/C(=N/N)C(=O)N3)c2ccc(C)o2)c(N2CCCCC2)c1 (stereo not drawn) [Cpd. 84, 2-[(3Z)-3-hydrazinylidene-2-oxo-2,3-dihydro-1H-indol-5-yl]-N-{[4-methyl-2-(piperidin-1-yl)phenyl](5-methylfuran-2-yl)methyl}acetamide]		100 to 1000
